ChEMBL document CHEMBL4418298, “Cyp8b1 and uses thereof in therapeutic and diagnostic methods” (2014)

Target: T1, 7-alpha-hydroxycholest-4-en-3-one 12-alpha-hydroxylase (Homo sapiens, UniProt Q9UNU6)
T1 sequence (Q9UNU6 whole entry): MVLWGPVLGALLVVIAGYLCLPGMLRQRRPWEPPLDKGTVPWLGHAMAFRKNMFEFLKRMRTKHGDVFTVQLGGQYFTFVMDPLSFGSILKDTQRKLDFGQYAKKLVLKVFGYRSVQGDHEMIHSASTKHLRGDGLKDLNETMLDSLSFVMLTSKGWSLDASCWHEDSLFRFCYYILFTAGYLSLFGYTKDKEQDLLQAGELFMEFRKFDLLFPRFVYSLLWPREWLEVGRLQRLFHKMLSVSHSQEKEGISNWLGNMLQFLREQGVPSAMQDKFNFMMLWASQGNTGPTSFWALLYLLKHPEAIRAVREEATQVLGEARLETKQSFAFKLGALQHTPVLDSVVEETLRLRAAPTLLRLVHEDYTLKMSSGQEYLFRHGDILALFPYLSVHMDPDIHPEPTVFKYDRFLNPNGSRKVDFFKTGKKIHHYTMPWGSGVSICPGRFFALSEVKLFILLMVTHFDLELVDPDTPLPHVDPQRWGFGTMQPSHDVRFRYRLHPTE
Assay: Inhibition of CYP8B1 in human liver microsomes using D7-7alpha-hydroxy-4-cholesten-3-one as substrate preincubated for 20 mins followed by substrate addition in presence of NADPH by UPLC-ESI-MS/MS analysis

Structure (SMILES) | IC50 [µM]
Clc1ccc(COC(Cn2ccnc2)c2ccc(Cl)cc2Cl)c(Cl)c1 (stereo not drawn) [MICONAZOLE] | 1.5
CC(=O)N1CCN(c2ccc(OC[C@H]3CO[C@](Cn4ccnc4)(c4ccc(Cl)cc4Cl)O3)cc2)CC1 [KETOCONAZOLE] | 2.2
CC[C@@H]([C@H](C)O)n1ncn(-c2ccc(N3CCN(c4ccc(OC[C@@H]5CO[C@@](Cn6cncn6)(c6ccc(F)cc6F)C5)cc4)CC3)cc2)c1=O [POSACONAZOLE] | 3.8
N[C@@H]1C[C@H]1c1ccccc1.N[C@H]1C[C@@H]1c1ccccc1 (racemic) [TRANYLCYPROMINE] | 7.8
Clc1ccc(COC(Cn2ccnc2)c2ccc(Cl)cc2Cl)cc1 (stereo not drawn) [ECONAZOLE] | 0.31
Clc1ccccc1C(c1ccccc1)(c1ccccc1)n1ccnc1 [CLOTRIMAZOLE] | 0.8
CCC(C)n1ncn(-c2ccc(N3CCN(c4ccc(OC[C@H]5CO[C@](Cn6cncn6)(c6ccc(Cl)cc6Cl)O5)cc4)CC3)cc2)c1=O (stereo partly drawn) [ITRACONAZOLE] | 4.7
CC(C)CCC[C@@H](C)[C@H]1CC[C@H]2[C@@H]3[C@H](O)C[C@@H]4C[C@H](O)CC[C@]4(C)[C@H]3C[C@H](O)[C@]12C | 7.6
